Measured values reported in ChEMBL document CHEMBL1148886, “Synthesis and antibacterial activity of 3-keto-6-O-carbamoyl-11,12-cyclic thiocarbamate erythromycin A derivatives” (2007).
≈ marks a conversion by molar mass, not a printed value.

Key:
Format in all cases: functional
Staphylococcus aureus = assay: Antibacterial activity against erythromycin-susceptible Staphylococcus aureus OC4172 by broth microdilution method
Haemophilus influenzae = assay: Antibacterial activity against Haemophilus influenzae OC4882 by broth microdilution method
Streptococcus pneumoniae [1] = assay: Antibacterial activity against erythromycin-susceptible Streptococcus pneumoniae OC9132 by broth microdilution method
Streptococcus pneumoniae [2] = assay: Antibacterial activity against erythromycin-resistant Streptococcus pneumoniae OC4051 containing erm(B) by broth microdilution method
Streptococcus pneumoniae [3] = assay: Antibacterial activity against erythromycin-resistant Streptococcus pneumoniae OC4438 containing mef(A) by broth microdilution method

| SMILES | MIC (Staphylococcus aureus) [µg/mL] | MIC (Haemophilus influenzae) [µg/mL] | MIC (Streptococcus pneumoniae [1]) [µg/mL] | MIC (Streptococcus pneumoniae [2]) [µg/mL] | MIC (Streptococcus pneumoniae [3]) [µg/mL] |
| --- | --- | --- | --- | --- | --- |
| CC[C@H]1OC(=O)[C@H](C)C(=O)[C@H](C)[C@@H](O[C@@H]2O[C@H](C)C[C@H](N(C)C)[C@H]2O)[C@](C)(OC)C[C@@H](C)C(=O)[C@H](C)[C@H]2N(CCCCn3cnc(-c4cccnc4)c3)C(=O)O[C@]12C [TELITHROMYCIN] | 0.25 (≈ 0.308 µM) | 2 (≈ 2.46 µM) | 0.03 (≈ 0.0369 µM) | 0.06 (≈ 0.0739 µM) | 0.25 (≈ 0.308 µM) |
| CC[C@H]1OC(=O)[C@H](C)[C@@H](O[C@H]2C[C@@](C)(OC)[C@@H](O)[C@H](C)O2)[C@H](C)[C@@H](O[C@@H]2O[C@H](C)C[C@H](N(C)C)[C@H]2O)[C@](C)(O)C[C@@H](C)C(=O)[C@H](C)[C@@H](O)[C@]1(C)O [ERYTHROMYCIN] | 0.5 (≈ 0.681 µM) | 8 (≈ 10.9 µM) | 0.06 (≈ 0.0818 µM) | > 16 | 4 (≈ 5.45 µM) |
| CC[C@H]1OC(=O)[C@H](C)C(=O)[C@H](C)[C@@H](O[C@@H]2O[C@H](C)C[C@H](N(C)C)[C@H]2O)[C@](C)(OC(N)=O)C[C@@H](C)C(=O)[C@H](C)[C@@H]2NC(=S)O[C@]12C | 4 (≈ 6.08 µM) | 8 (≈ 12.2 µM) | 0.25 (≈ 0.38 µM) |  |  |
